Measured values as given in PMC7058788, “GLI1 Inhibitor SRI-38832 Attenuates Chemotherapeutic Resistance by Downregulating NBS1 Transcription in BRAF^V600E Colorectal Cancer” (Frontiers in Oncology, 2020).
Several values for one entry are separate records, joined by “and”; a condition that tells them apart may be missing. Identical values can stand only once.

Tests used:
NBS1 = assay: Western blot analysis of MRN components and damage/apoptosis markers in HT29 cells; type: cell-based, human; conditions: HT29, 20 μM, 72 h
Procedure: Cells were seeded in six-well plates and cultured until 70–80% confluent in 10% FBS-supplemented RPMI medium with L-glutamine and maintained at 37°C with 5% CO2. The cells were then treated with/without GANT61, SRI-38832, or 5-FU as indicated in the figure legends, and protein isolates were analyzed by Western blot. Briefly, 15 μg of protein was loaded and separated on a SDS-PAGE gel. Proteins were transferred to polyvinylidene difluoride (PVDF) membranes overnight. Membranes were washed in TBS-T, blotted in primary antibody overnight at 4°C, and subsequently washed and blotted with HRP-linked secondary antibody for 1 h. Membranes were developed and images were taken on an ImageQuant LAS 4000.

HT29 [1] = assay: Annexin V/PI flow cytometry, cell death/apoptosis; type: cell-based
Procedure: (§1) Cells were treated, in duplicate, as described in the figure legends. At the end of treatment, cells were collected by trypsinization and incubated with Annexin V FITC (BD Biosciences) and PI (Sigma) prior to analysis using a FACS Calibur flow cytometer. Data was analyzed using FlowJo software.

CRC = conditions: 5-FU and its combinational treatment (FOLFOX), in the clinic; cited from earlier work
HCT116 [2] = assay: Annexin V/PI flow cytometry, cell death; type: cell-based, human; conditions: 10 and 20 μM, 72 h; low GLI1 and NBS1
Procedure: as §1

SW480 = assay: Annexin V/PI flow cytometry, cell death; type: cell-based, human; conditions: 10 and 20 μM, 72 h; low GLI1 and NBS1
Procedure: as §1

HCT8 [3] = assay: Annexin V/PI flow cytometry, cell death; type: cell-based, human; conditions: 10 and 20 μM, 72 h; high GLI1 and NBS1
Procedure: as §1

HCT116 [4] = assay: COMET assay, DNA damage by tail length; type: cell-based, human; conditions: 20 μM, 48 h
Procedure: (§2) Cells were treated with/without GANT61 (20 μM), SRI-38832 (20 μM) or 5-FU (20 μM) for 48 h, subsequently trypsinized and washed in PBS before being added to preheated (37°C), low-melting point agarose. The solution was pipetted onto slides pre-coated with 1% agarose. The chilled slides were allowed to lyse for 40 min at 4°C in 2.5 M NaCl,100 mM EDTA (pH 10), 10 mM Tris Base, 1% SDS, 1% Triton X−100 prior to immersion in alkaline electrophoresis solution (300 mM NaOH, 1 mM EDTA, pH 13). After 30 min, slides were placed into a horizontal electrophoresis chamber for ~30 min (1 V/cm at 4°C). The slides were washed with deionized H2O to remove the alkaline buffer, dehydrated in 70% ice–cold EtOH and air-dried overnight. Slides were stained with SYBR-Green and examined by microscopy. Tail length (TL) was used to quantify the DNA damage. Image analysis and quantification has been performed with ImageJ.

HT29 [5] = assay: COMET assay, DNA damage by tail length; type: cell-based, human; conditions: 20 μM, 48 h
Procedure: as §2

HT29 [6] = assay: CellTiter-Glo Luminescent Cell Viability (cell proliferation) assay; type: cell-based, human
Procedure: (§3) Confluent monolayers of cells were trypsinized, and 10,000 cells suspended in 200 μl of medium were added to each well of the 96-well plate. […] The proliferation of the cells was determined using the CellTiter-Glo Luminescent Cell Viability Assay kit (Promega).

HCT8 [7] = assay: as above; type: cell-based, human; conditions: for IC50: Homo sapiens, HCT-8, Figure 5B-D, HCT8 (low GLI1 expression), unit inferred, x-axis in μM
Procedure: as §3

NBS1 mRNA = NBS1 mRNA qRT-PCR in HT29 cells; type: cell-based, human; conditions: GANT61 as early as 24 h post treatment
Procedure: Total RNA was extracted by Invitrogen™ PureLink™ RNA Mini Kit (Fisher scientific) and cDNAs were synthesized with the ThermoScript reverse transcriptional system. qRT-PCR was performed to assess the enrichment of the specific proteins along the NBS1 ORF using specific primer pairs: NBS1-primer-1-F:[…],NBS1-primer-1-R: […]. Human GAPDH cDNA was used as an internal control.

[8] = parameters: method as in PMID 29338454; conditions: cited from earlier work
GLI1 = molecular target: T1, GLI1 (Homo sapiens, UniProt P08151); assay: ChIP assay, GLI1 enrichment on the NBS1 promoter in HT29 cells; type: cell-based; conditions: HT29, 20 μM, 24 h
T1 construct: HT29, which express GLI1 and have high basal NBS1 expression; endogenous in cells; host or cells: HT29
T1 sequence (P08151 1-1106): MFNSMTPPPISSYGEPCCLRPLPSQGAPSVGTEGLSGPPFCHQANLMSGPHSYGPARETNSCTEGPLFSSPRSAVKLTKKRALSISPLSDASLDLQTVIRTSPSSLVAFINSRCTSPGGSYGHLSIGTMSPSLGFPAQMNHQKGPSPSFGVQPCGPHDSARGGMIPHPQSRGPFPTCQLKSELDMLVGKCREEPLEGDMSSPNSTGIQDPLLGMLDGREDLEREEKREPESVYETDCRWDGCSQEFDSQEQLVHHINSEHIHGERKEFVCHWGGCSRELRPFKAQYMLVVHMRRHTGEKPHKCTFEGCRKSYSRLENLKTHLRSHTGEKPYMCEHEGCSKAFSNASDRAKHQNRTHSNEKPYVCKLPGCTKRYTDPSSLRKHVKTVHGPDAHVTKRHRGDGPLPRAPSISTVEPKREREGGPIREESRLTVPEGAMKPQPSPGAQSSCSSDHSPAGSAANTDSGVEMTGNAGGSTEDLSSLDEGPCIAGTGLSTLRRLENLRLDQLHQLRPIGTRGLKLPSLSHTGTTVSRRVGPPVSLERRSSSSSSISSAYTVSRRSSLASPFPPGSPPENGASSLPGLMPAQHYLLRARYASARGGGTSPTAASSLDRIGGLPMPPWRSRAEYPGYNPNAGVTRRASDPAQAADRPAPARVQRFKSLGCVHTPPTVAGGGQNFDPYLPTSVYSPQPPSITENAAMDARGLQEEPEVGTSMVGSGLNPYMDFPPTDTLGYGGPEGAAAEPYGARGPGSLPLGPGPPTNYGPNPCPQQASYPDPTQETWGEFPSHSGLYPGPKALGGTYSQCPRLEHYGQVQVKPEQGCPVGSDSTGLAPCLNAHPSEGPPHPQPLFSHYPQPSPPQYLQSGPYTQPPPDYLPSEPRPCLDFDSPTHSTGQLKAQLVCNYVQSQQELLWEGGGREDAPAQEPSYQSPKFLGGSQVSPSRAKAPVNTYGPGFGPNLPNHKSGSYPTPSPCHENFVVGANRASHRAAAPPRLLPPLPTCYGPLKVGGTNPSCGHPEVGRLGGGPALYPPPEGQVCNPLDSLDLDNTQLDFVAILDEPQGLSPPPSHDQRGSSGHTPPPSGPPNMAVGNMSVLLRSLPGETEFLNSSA
Procedure: HT29 cells (2 × 10^6) were seeded in T75 flasks. After overnight attachment, cells were treated with/without GANT61 (20 μM) or SRI-38832 (20 μM) for 24 h. The cells were trypsinized, washed with 1x PBS and fixed with 1.1% formaldehyde for 10 min at RT. Glycine (0.125 M) was added to stop the reaction. Cells were washed with PBS × 1 and lysed using the ChIP kit according to the manufacturer's instructions (Abcam, Ab500). To fragment the DNA, the cells were sonicated (30 s with 30 s cooling repeatedly for 15 cycles) to obtain fragmented DNA from 100 bp to 1 kB which was verified by agarose gel migration. Lysates were subjected to immunoprecipitation overnight at 4°C with 10 μg of anti-human antibodies for GLI1 (Novus) and Histone H3 for positive control provided by the Abcam ChIP kit. The complex was subsequently incubated with Dynabeads protein G (Invitrogen) for 2 h, 4°C, on a rotating wheel. Beads were washed for 10 min at 4°C with low salt buffer (2x TE, 150 mM NaCl, 1% Triton X-100, 0.1% SDS). Beads were then washed for 10 min at 4°C with high salt buffer (2x TE, 500 mM NaCl, 1% Triton X-100, 0.1% SDS). Next, beads were washed for 10 min at 4° with LiCl buffer (1x TE, 1% NP-40, 0.25 M LiCl, 1% deoxycholate). […]

MRN complex = assay: Confocal microscopy, NBS1 signal and NBS1/MRE11 co-localization in HT29 cells; type: cell-based, human
Procedure: Cells were plated at a density of 50,000 cells/well in six-well plates on coverslips and allowed to attach overnight. Media was removed and cells were treated with/without GANT61 (20 μM) for 48 h. Coverslips were removed and placed in a humidity chamber for fixation by absolute methanol for 10 min at 4°C. Cells were permeabilized with acetone for 1 min at 4°C. After washing with PBS × 3, cells were incubated with the diluted primary antibody overnight at 4°C. Cells were subsequently washed x 3 and incubated with appropriate secondary antibody at room temperature in the dark for 1 h. After washing with PBS, cell nuclei were stained with DAPI at RT for 5–10 min. Confocal images were acquired on a Nikon A1 laser confocal system with a Nikon Eclipse Ti microscope and a 60X Plan Apo objective. Lasers used were 405 nm for blue, 488 nm for green, and 561 nm for red. NIS Elements AR 4.5000 software was used to acquire Z-stacks of each channel sequentially to avoid spectral cross talk. Each slice was captured at a 0.15 μm step. Primary antibodies used were γH2AX (Millipore 1:200), NBS1 (Novus 1:200), and MRE11 (Cell Signaling 1:200). The co-localization index for specific foci and fluorescent intensity were calculated by ImageJ.

BRAF^V600E variant = system: BRAF^V600E variant; parameters: method as in PMID 26460303; conditions: single agent, BRAF^V600E CRC patients; cited from earlier work
[9] = Homo sapiens, HT-29, Figure 5B-D, HT29 (high GLI1 expression), unit inferred, x-axis in μM
[10] = Homo sapiens, HT-29, Figure 5E, comparison on HT29, unit inferred
[11] = Homo sapiens, HT-29, HT29, values in running text

SMILES: O=c1[nH]cc(F)c(=O)[nH]1 [5-FU, 5-fluorouracil]
- expression of MRE11 and RAD50 (NBS1): did not result in any significant decreases
- total NBS1 protein level (NBS1): did not result in any significant decreases
- sensitivity to 5-FU treatment (cell death) (HT29 [1]; 10 and 20 μM, 72 h, high GLI1 and NBS1): resistant
- apoptotic cells after 5-FU treatment (HT29 [1]; shGLI1 HT29 cells): about 60%
- apoptotic cells after 5-FU treatment (HT29 [1]; siNBS1 HT29 cells): Over 40%
- dead cells after 5-FU treatment (HT29 [1]; vector HT29 cells (shGLI1 experiment)): 20%
- overall response rate (CRC): 10–15%
- sensitivity to 5-FU treatment (cell death) (HCT116 [2]): highly sensitive
- sensitivity to 5-FU treatment (cell death) (SW480): highly sensitive
- sensitivity to 5-FU treatment (cell death) (HCT8 [3]): resistant
- tail length relative to control (HCT116 [4]): about 3.5 time of control
- induction of DNA damage (comet assay) (HT29 [5]): did not
- IC50 (HT29 [6]; [9]): 528 µM
- IC50 (HT29 [6]; [10]): 525 µM
- IC50 (HT29 [6]; [11]): 625 µM
- IC50 in HCT8 lower than in HT29 (HCT8 [7]; HCT8 vs HT29): 5 fold
- IC50 (HCT8 [7]): 110 µM

SMILES: CN(C)c1ccccc1CN1CCCN(Cc2ccccc2N(C)C)C1c1ccncc1 [GANT61]
- expression of MRE11 and RAD50 (NBS1): did not substantially alter
- total NBS1 protein level (NBS1): significantly decreased
- γ-H2AX level (NBS1): increased levels
- cells rescued from apoptosis after GANT61 treatment by overexpression of any NBS1 vector (HT29 [1]; GANT61 20 μM, 72 h, NBS1, S343A or S343E overexpressing HT29): ~ 25%
- apoptotic HT29 cells (HT29 [1]; time-course, 48 h of treatment): ~40%
- NBS1 mRNA level (NBS1 mRNA): significantly decreased
- stability in vivo [8]: hydrolyzed and loses biological activity in vivo
- tail length relative to control (HT29 [5]): 2.5 time of control
- GLI1 binding enrichment on the NBS1 promoter (GLI1): significantly reduced
- co-localization of NBS1 and MRE11 (MRN complex; HT29, 20 μM): significant decrease
- fluorescent signal of NBS1 (MRN complex; HT29, 20 μM (24 h in text, 48 h in legend and method)): significantly reduced
- IC50 (HT29 [6]; Figure 6A, HT29, unit inferred): 22 µM
- IC50 (HT29 [6]; HT29, values in running text): 21.9 µM and 21 µM

SMILES: CCCS(=O)(=O)Nc1ccc(F)c(C(=O)c2c[nH]c3ncc(-c4ccc(Cl)cc4)cc23)c1F [Vemurafenib]
- response rate (BRAF^V600E variant): < 5%

SMILES: CS(=O)(=O)c1ccc(C(=O)Nc2ccc(Cl)c(-c3ccccn3)c2)c(Cl)c1 [Vismodegib]
- IC50 higher than GANT61 (HT29 [6]; HT29 cells): 4 fold
- IC50 (HT29 [6]; [9]): 78.7 µM
- IC50 (HT29 [6]; [10]): 81.4 µM
- IC50 (HT29 [6]; [11]): ~80 µM
- IC50 (HCT8 [7]): 80.5 µM
